Measurements: BindingDB's records for doi:10.1016/j.bmcl.2016.04.067 (Peking University Health Science Center, 2016)

Key:
[1] = Inhibition of trypsin-like activity of 20S human proteasome assessed as Z-LRR-AMC hydrolysis at using Promega proteasome-Glo-3 substrate incubated for 15 mins by luminescence assay
[2] = Inhibition of caspase-like activity of 20S human proteasome assessed as Z-nLPnLD-AMC hydrolysis at using Promega proteasome-Glo-3 substrate incubated for 15 mins by luminescence assay

IC50 [1]	IC50 [2]	Structure (SMILES)
220 µM	103 µM	O=c1c2ccccc2c(-c2ccc(OCCCC[P+](c3ccccc3)(c3ccccc3)c3ccccc3)cc2)nn1-c1ccccc1
558 µM	70.5 µM	O=c1c2ccccc2c(-c2ccc(OCCCC[P+](c3ccccc3)(c3ccccc3)c3ccccc3)cc2)nn1-c1cccs1
390 µM	131 µM	CNc1ccc(-n2nc(-c3ccc(OCCCC[P+](c4ccccc4)(c4ccccc4)c4ccccc4)cc3)c3ccccc3c2=O)cc1
276 µM	80.2 µM	CC(C)Cn1nc(-c2ccc(OCCCC[P+](c3ccccc3)(c3ccccc3)c3ccccc3)cc2)c2ccccc2c1=O
589 µM	133 µM	O=c1c2ccccc2c(-c2ccc(OCCCC[P+](c3ccccc3)(c3ccccc3)c3ccccc3)cc2)nn1CC1CC1
643 µM	50.4 µM	O=c1c2ccccc2c(-c2ccc(OCCCC[P+](c3ccccc3)(c3ccccc3)c3ccccc3)cc2)nn1CC1CCCCC1
